Legend:
Type in all cases: cell-based, human
caspase 3 [1] = assay: ELISA caspase 3 in A549 cells; settings: control 6.32
Source text: (§1) Elisa assay was used to determine the concentrations of Human caspases-3, -8, Bax, and Bcl2 in PACA2- and A549-treated cells. Also, the concentrations of caspase-8, Bax, and Bcl2 in MCF7-treated cells were detected. The procedures were followed up according to the instructions described in the following kits; Invitrogen human Caspase-3 Elisa Kit, Catalog KHO1091, DRG® human Caspase-8 ELISA Kit, Catalog (EIA-4863), Human Bax ELISA Kit (ab199080) and Human Bcl-2 ELISA Kit (ab119506) respectively. Shortly, the protocol described in the above kits was as followed; at the beginning, all the reagents, samples and standards were prepared. 100 μl of samples or standard were micro pipetted to each well of micro-well strip and kept at room temperature for 2 h. After washing the micro-well strips three times with washing buffer, the prepared antibody (anti-rabbit-IgG-HRP) at a concentration of 100 μl was added to each well at room temperature for 1 h. Then, the micro-well strips were washed again three times. Afterward, the prepared tetramethyl-benzidine (TMB) solution (100 μl) was added to the micro-well strips and kept for 10 min. […] The absorbance of all samples was measured at a wavelength of 460 nm and compared to that of the standard. Curve fitting software was used to plot a standard curve and the concentrations for the unknown samples were measured from the standard curve.

caspase 8 [2] = assay: ELISA caspase 8 in A549 cells; settings: control 5.83
Source text: as §1

BAX [3] = assay: ELISA BAX in A549 cells; settings: control 5.84
Source text: as §1

Bcl2 [4] = assay: ELISA Bcl2 in A549 cells; settings: control 16.21
Source text: as §1

lung cell line (A549) = assay: DNA fragmentation assay, A549; settings: A549, IC50, 24 h, vs negative control (P < 0.01); Dox. higher than 4b
Experimental: The DNA fragmentation assay in a pancreatic cell line (Paca2), breast cancer cell lines (MCF-7) and lung cell line (A549) was performed in concordance with the premises established by Yawata with some modifications. Briefly, after 24 h of exposure of Paca2, MCF-7 and A549 cancer cell lines to the prepared compounds in different Petri dishes (60 × 15 mm, Greiner), the cells were suspended and homogenized in 1 ml of medium and then centrifuged for 10 min at 900 rpm. The genomic DNA was extracted as shown in Yawata. About 1 × 10^6 cells of each tested cancer cell line were treated with the IC50 values of the tested compounds. All the cells were collected via trypsinization and washed with Dulbecco`s Phosphate Buffered Saline. Then, the cells were treated with the lysis buffer containing 5 mM ethylenediaminetetraacetic acid (EDTA), 10 mM Tris (pH 7.4), 0.5% Triton X-100 and 150 mM NaCl for 35 min on ice. […] Finally, the percentage of fragmented DNA was determined by performing gel electrophoresis using 2% agarose gel containing 0.1 μg/ml ethidium bromide.
Pancreatic cancer cell line (Paca2), breast cancer cell line (MCF-7) and lung cancer cell line (A549) were used to determine the percentage of DNA fragmentation after the treatment with IC50 of the tested compounds. […] The percentage of fragmented DNA was measured from the absorbance reading at 600 nm wavelength using the following formula: […]

CDK4 = assay: RT-qPCR CDK4 mRNA in A549; settings: A549, compared with Dox.
Experimental: (§2) All of the extractions were conducted on ice with ice-cold reagents. Total RNA from the different cell lines was isolated using Trizol (Invitrogen; Life Technologies, USA) according to the method of Sthoeger et al.. The 260:280 ratios were measured to determine RNA quality after the isolation method was completed according to the manufacturer’s instructions. A high-capacity cDNA reverse transcription kit was used to produce complementary DNA (cDNA) (Applied Biosystems, USA). […] The relative gene expression method (i.e., ΔΔCT) was used to analyze the real-time PCR data, as explained in Applied Biosystem User Bulletin No. 2. Each sample and gene were normalized using the β-actin gene.

IL-8 = assay: RT-qPCR IL-8 mRNA in A549; settings: A549, compared with Dox.
Experimental: as §2

caspase 3 [5] = assay: ELISA caspase 3 in Paca2 cells; settings: control 5.34
Source text: as §1

caspase 8 [6] = assay: ELISA caspase 8 in Paca2 cells; settings: control 4.85
Source text: as §1

BAX [7] = assay: ELISA BAX in Paca2 cells; settings: control 3.86
Source text: as §1

Bcl2 [8] = assay: ELISA Bcl2 in Paca2 cells; settings: control 16.23
Source text: as §1

Compound | caspase 3 level (ELISA) (caspase 3 [1]) [pg/mL] | caspase 8 level (ELISA) (caspase 8 [2]) [pg/mL] | BAX level (ELISA) (BAX [3]) [pg/mL] | Bcl2 level (ELISA) (Bcl2 [4]) [pg/mL] | DNA fragmentation value (lung cell line (A549)) | CDK4 mRNA level (CDK4) | IL-8 mRNA level (IL-8) | caspase 3 level (ELISA) (caspase 3 [5]) [pg/mL] | caspase 8 level (ELISA) (caspase 8 [6]) [pg/mL] | BAX level (ELISA) (BAX [7]) [pg/mL] | Bcl2 concentration (ELISA) (Bcl2 [8]) [pg/mL]
COc1ccc(-c2c(Cl)n(-c3ccc(Cl)cc3Cl)c3ncnc(Cl)c23)cc1OC [Compound 4b, 4,6-dichloro-7-(2,4-dichlorophenyl)-5-(3,4-dimethoxyphenyl)-7H-pyrrolo[2,3-d]pyrimidine] | 12.12 | 16.84 | 14.83 | 9.4 | increased significantly | down-regulated | down-regulated | – | – | – | –
CN1CCN(c2nc(C(Cl)(Cl)Cl)nc3c2c(-c2ccc(Br)cc2)c(Cl)n3-c2ccc(Cl)cc2Cl)CC1 [Compound 17, 5-(4-bromophenyl)-6-chloro-7-(2,4-dichlorophenyl)-4-(4-methylpiperazin-1-yl)-2-(trichloromethyl)-7H-pyrrolo[2,3-d]pyrimidine] | – | – | – | – | – | – | – | 9.14 | 13.86 | 11.85 | 6.26

From publication PMC10463376, “Design, synthesis, in vitro anticancer, molecular docking and SAR studies of new series of pyrrolo[2,3-d]pyrimidine derivatives” (BMC Chemistry, 2023)
